Test results from patent US10987059B2, “Electronic scaffold and uses thereof” (Ramot at Tel-Aviv University Ltd., priority 2013, dated 2021).

What was measured:
[1] = system: neonatal rat ventricular cardiomyocytes; test: Action potentials recorded from the engineered (cyborg) tissue before and after adding a stimulating drug; assay type: cell-based; details: 100 nM in growth medium, 15 minutes incubation; single electrode; device with albumin fibrous scaffold; before vs after drug
Procedure: After the device was incubated for a time period that allows tissue generation, the obtained cyborg tissue was connected to the pre-amplifier and monitored through the computer, using a system as exemplified in FIG. 8. This allows monitoring the progress of tissue formation as well as studying the influence of different conditions and substances on the tissue, an approach that could replace animal drug testing and make it easier and simpler.
At the time of the recording, the device was connected to a ME64-FAI-MPA-System by multichannel systems (Germany). Action potentials were recorded using the MC rack software which allows recording over multiple electrodes simultaneously.
After action potentials were recorded, 100 nM of noradrenaline was added to the growth medium and the device was allowed to incubate for 15 minutes after which the device was reconnected and action potentials were again recorded.

[2] = Release profile of SSA from polypyrrole hydrogel scaffold upon voltage application; assay type: physicochemical; details: absorbance at 280 nm
Procedure: Pyrrole was […] in a 10-mL one-compartment cell, using an electrochemical workstation under computer control. The gold-based microelectrodes, prepared as described in Example 1 hereinabove, were used as working electrodes. The counter electrode was platinum wire and the reference electrode was a saturated calomel electrode (SCE). The electrolyte was an aqueous solution (100 ml) containing 0.2 M pyrrole (1.39 ml) and 0.2 M sulfosalicylic acid (5.08 grams), which was degassed by nitrogen stream before polymerization was effected. The SSA-doped PPy films (PPy-SSA) were prepared on the gold microelectrodes by galvanostatic polymerization using a current density of 2.5 mA/cm^2 for 800 seconds. The as-prepared PPy-SSA films were rinsed with de-ionized water and dried in air at room temperature. A second layer was thereafter deposited by using an aqueous solution (100 ml) of 0.2 M pyrrole and 0.1 M NaCl (0.5844 grams), subjected to a galvanostatic polymerization with a current density of 2 mA/cm^2 for 500 seconds.

[3] = poly(2-acrylamido-2-methylpropane sulfonic acid-co-n-butylmethacrylate) scaffold; PBS medium; optical density at 462
Procedure: The release profile of dopamine from device polymeric element made of a positive electro-responsive polymer as described herein was measured as follows:
Disc shaped preloaded slices of formed hydrogel (2-3 mm) were placed between two Graphite electrodes (1 cm apart) in a plastic culture plate. The electrodes were connected to a stimulus generator (STG-4002 multichannel systems, Germany), and the plate was filled with a medium of PBS (0.35 ml). A DC pulse of different intensities (0-8 volt) and different durations (0-15 minutes) was supplied.
Nano-Drop spectrophotometer (ND-1000 spectrophotometer, Thermo scientific, Wilmington Del. U.S.A) at a wave length of 462 was used to examine the light absorbance of the medium. The relation between the light absorbance and the concentration is given by Beer-Lambert as a linear equation: A=εlc
wherein A is the light absorbance, l is the length of the light through the sample [m], C is the concentration in [M], and ε is the molar absorptivity [m^−1M^−1].

NC[C@H](O)c1ccc(O)c(O)c1 [Noradrenalin]
frequency of the action potentials [1]: increased

O=C(O)c1cc(S(=O)(=O)O)ccc1O [SSA, Sulfosalicylic acid]
drug release, voltage on vs off [2]: When voltage is applied the drug is released into the polymer's vicinity and when voltage application is discontinued drug release ceases

NCCc1ccc(O)c(O)c1 [dopamine]
drug release rate, voltage on vs off [3]: much higher drug release rate when voltage is applied (on) than when it is not applied (off)
